Reference: the supplement of paper PMC11208160

Assay: recombinant barcode read abundance after kanamycin selection (control-corrected) (log10(CPM+1)); higher = more efficient recombination; sequences stand for … in AGTGCAGAGAAAATCGGCCAGTTTTCTCTGCCTGCAGTCCGCATGCCGT…AGATTTATGCAGCGGACTGCCTTTCTCCCAAAGTGATAAACCGGACAGTATCATGGACCGGTTTTCCCGGTAATCCGTATTTGCAAGGTTGGTTTCACT; site = the 11-nt target
Method in brief: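 Recombination efficiency comes from barcode counts at recombinant junctions, converted to counts per million, averaged and corrected against the control. Values appear as log10(CPM+1). They were obtained from a pooled E. coli screen in which each oligo paired a target with an IS621 bridge RNA target-binding loop, and cells were plated in duplicate on chloramphenicol/ampicillin LB agar or on chloramphenicol/ampicillin/kanamycin with 0.1 mM IPTG.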
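Also: IS621 recombinase and bridge RNA in Escherichia coli cells.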

With “GCACTAACTTGGGTTCTAACCTGTTGCCT (site GCACTAACTAG)” the “recombinant barcode read abundance (log10)” value was 1.14.
For “GCACTAACTTGGGTTCTAACCTGTTGCCT (site GCACTAGCTAC)”, the “recombinant barcode read abundance (log10)” value was 0.216.
With “GCAGGGACTTGGGTTCTAACCTGTTGCAG (site GCAAGGACTCT)” the “recombinant barcode read abundance (log10)” value was 0.883.
For “GCAGGGACTTGGGTTCTAACCTGTTGCAG (site GCACGGACTCT)”, the “recombinant barcode read abundance (log10)” value was 0.552.
With “GCAGGGACTTGGGTTCTAACCTGTTGCAG (site GCAGGGACTCT)” the “recombinant barcode read abundance (log10)” value was 1.72.
For “GCAGGGACTTGGGTTCTAACCTGTTGCAG (site GCATGGACTCT)”, the “recombinant barcode read abundance (log10)” value was 0.224.
In the case of “GCAGGGTCTTGGGTTCTAACCTGTTGCCT (site GCAAGATCTAG)”, the “recombinant barcode read abundance (log10)” value is reported as 0.158.
In the case of “GCAGGGTCTTGGGTTCTAACCTGTTGCCT (site GCAGGGTCTAG)”, the “recombinant barcode read abundance (log10)” value is reported as 1.45.
For “GCATCGTCTTGGGTTCTAACCTGTTGCCT (site GCATCGTCTAG)”, the “recombinant barcode read abundance (log10)” value was 0.649.
For “GCATCGTCTTGGGTTCTAACCTGTTGCCT (site GCCTCGTCTAG)”, the “recombinant barcode read abundance (log10)” value was 0.0437.
With “GCATCGTCTTGGGTTCTAACCTGTTGCCT (site GCGTCGTCTAG)” the “recombinant barcode read abundance (log10)” value was 0.0424.
In the case of “GCATCGTCTTGGGTTCTAACCTGTTGCCT (site GCTTCGTCTAG)”, the “recombinant barcode read abundance (log10)” value is reported as 0.0989.
With “GCCAACCCTTGGGTTCTAACCTGTTGCTT (site GCCAACCCTAA)” the “recombinant barcode read abundance (log10)” value was 0.0414.
With “GCCAACCCTTGGGTTCTAACCTGTTGCTT (site GCCAACCCTAC)” the “recombinant barcode read abundance (log10)” value was 0.0528.
For “GCCAACCCTTGGGTTCTAACCTGTTGCTT (site GCCAACCCTAG)”, the “recombinant barcode read abundance (log10)” value was 0.412.
For “GCCAACCCTTGGGTTCTAACCTGTTGCTT (site GCCAACCCTAT)”, the “recombinant barcode read abundance (log10)” value was 0.39.
In the case of “GCCATCACTTGGGTTCTAACCTGTTGCCT (site GCCATAACTAG)”, the “recombinant barcode read abundance (log10)” value is reported as 0.00743.
With “GCCATCACTTGGGTTCTAACCTGTTGCCT (site GCCATCACTAG)” the “recombinant barcode read abundance (log10)” value was 0.112.
With “GCCATCACTTGGGTTCTAACCTGTTGCCT (site GCCATGACTAG)” the “recombinant barcode read abundance (log10)” value was 0.152.
In the case of “GCCATCACTTGGGTTCTAACCTGTTGCCT (site GCCATTACTAG)”, the “recombinant barcode read abundance (log10)” value is reported as 0.12.
For “GCCATCTCTTGGGTTCTAACCTGTTGCCT (site GCCATCTCTAG)”, the “recombinant barcode read abundance (log10)” value was 0.0476.
For “GCCATCTCTTGGGTTCTAACCTGTTGCCT (site GCCGTCTCTAG)”, the “recombinant barcode read abundance (log10)” value was 0.0992.
For “GCCATGTCTTGGGTTCTAACCTGTTGCCT (site GCCATGTCTAG)”, the “recombinant barcode read abundance (log10)” value was 0.502.
With “GCCATGTCTTGGGTTCTAACCTGTTGCCT (site GTCATGTCTAG)” the “recombinant barcode read abundance (log10)” value was 0.0158.
With “GCCCATCCTTGGGTTCTAACCTGTTGCTA (site GCCCATCCTTA)” the “recombinant barcode read abundance (log10)” value was 1.36.
In the case of “GCCCATCCTTGGGTTCTAACCTGTTGCTA (site TAGTGAGCTCG)”, the “recombinant barcode read abundance (log10)” value is reported as 0.222.
With “GCCCCATCTTGGGTTCTAACCTGTTGCCT (site GCCCAATCTAG)” the “recombinant barcode read abundance (log10)” value was 0.00703.
For “GCCCCATCTTGGGTTCTAACCTGTTGCCT (site GCCCCATCTAG)”, the “recombinant barcode read abundance (log10)” value was 0.601.
In the case of “GCCCCATCTTGGGTTCTAACCTGTTGCCT (site GCCCGATCTAG)”, the “recombinant barcode read abundance (log10)” value is reported as 0.37.
In the case of “GCCCCATCTTGGGTTCTAACCTGTTGCCT (site GCCCTATCTAG)”, the “recombinant barcode read abundance (log10)” value is reported as 0.384.
With “GCCCCGCCTTGGGTTCTAACCTGTTGCAG (site GCCACGCCTCT)” the “recombinant barcode read abundance (log10)” value was 0.319.
In the case of “GCCCCGCCTTGGGTTCTAACCTGTTGCAG (site GCCCCGCCTCT)”, the “recombinant barcode read abundance (log10)” value is reported as 1.02.
In the case of “GCCCCGCCTTGGGTTCTAACCTGTTGCAG (site GCCGCGCCTCT)”, the “recombinant barcode read abundance (log10)” value is reported as 0.00897.
In the case of “GCCCCGCCTTGGGTTCTAACCTGTTGCAG (site GCCTCGCCTCT)”, the “recombinant barcode read abundance (log10)” value is reported as 0.0556.
For “GCCCGGGCTTGGGTTCTAACCTGTTGCCG (site GCCAGGGCTCG)”, the “recombinant barcode read abundance (log10)” value was 0.144.
In the case of “GCCCGGGCTTGGGTTCTAACCTGTTGCCG (site GCCCGGGCTCG)”, the “recombinant barcode read abundance (log10)” value is reported as 0.309.
For “GCCCGGGCTTGGGTTCTAACCTGTTGCCG (site GCCGGGGCTCG)”, the “recombinant barcode read abundance (log10)” value was 0.0496.
With “GCCCGGGCTTGGGTTCTAACCTGTTGCCG (site GCCTGGGCTCG)” the “recombinant barcode read abundance (log10)” value was 0.0679.
For “GCCCGTGCTTGGGTTCTAACCTGTTGCCT (site GCACGTGCTAG)”, the “recombinant barcode read abundance (log10)” value was 0.377.
In the case of “GCCCGTGCTTGGGTTCTAACCTGTTGCCT (site GCCCGTGCTAG)”, the “recombinant barcode read abundance (log10)” value is reported as 1.31.
For “GCCCGTGCTTGGGTTCTAACCTGTTGCCT (site GCGCGTGCTAG)”, the “recombinant barcode read abundance (log10)” value was 0.177.
In the case of “GCCCGTGCTTGGGTTCTAACCTGTTGCCT (site GCTCGTGCTAG)”, the “recombinant barcode read abundance (log10)” value is reported as 0.0122.
With “GCCCTGCCTTGGGTTCTAACCTGTTGCCT (site GCACTGCCTAG)” the “recombinant barcode read abundance (log10)” value was 0.705.
With “GCCCTGCCTTGGGTTCTAACCTGTTGCCT (site GCCCTGCCTAG)” the “recombinant barcode read abundance (log10)” value was 1.43.
In the case of “GCCCTTGCTTGGGTTCTAACCTGTTGCCT (site GAACTTGCTAG)”, the “recombinant barcode read abundance (log10)” value is reported as 0.114.
For “GCCCTTGCTTGGGTTCTAACCTGTTGCCT (site GCCCTTGCTAG)”, the “recombinant barcode read abundance (log10)” value was 1.79.
In the case of “GCCGACACTTGGGTTCTAACCTGTTGCCT (site GCCGAAACTAG)”, the “recombinant barcode read abundance (log10)” value is reported as 0.0569.
In the case of “GCCGACACTTGGGTTCTAACCTGTTGCCT (site GCCGACACTAG)”, the “recombinant barcode read abundance (log10)” value is reported as 0.13.
With “GCCGACACTTGGGTTCTAACCTGTTGCCT (site GCCGAGACTAG)” the “recombinant barcode read abundance (log10)” value was 0.284.
In the case of “GCCGACACTTGGGTTCTAACCTGTTGCCT (site GCCGATACTAG)”, the “recombinant barcode read abundance (log10)” value is reported as 0.17.
For “GCCGAGTCTTGGGTTCTAACCTGTTGCTC (site GCCGAGTCTAA)”, the “recombinant barcode read abundance (log10)” value was 0.191.
For “GCCGAGTCTTGGGTTCTAACCTGTTGCTC (site GCCGAGTCTCA)”, the “recombinant barcode read abundance (log10)” value was 0.0833.
For “GCCGAGTCTTGGGTTCTAACCTGTTGCTC (site GCCGAGTCTGA)”, the “recombinant barcode read abundance (log10)” value was 1.2.
With “GCCGAGTCTTGGGTTCTAACCTGTTGCTC (site GCCGAGTCTTA)” the “recombinant barcode read abundance (log10)” value was 0.371.
With “GCCGATCCTTGGGTTCTAACCTGTTGCCT (site GACGATCCTAG)” the “recombinant barcode read abundance (log10)” value was 0.332.
In the case of “GCCGATCCTTGGGTTCTAACCTGTTGCCT (site GCCGATCCTAG)”, the “recombinant barcode read abundance (log10)” value is reported as 0.12.
In the case of “GCCGATCCTTGGGTTCTAACCTGTTGCCT (site GGCGATCCTAG)”, the “recombinant barcode read abundance (log10)” value is reported as 0.205.
With “GCCGATCCTTGGGTTCTAACCTGTTGCCT (site GTCGATCCTAG)” the “recombinant barcode read abundance (log10)” value was 0.0291.
With “GCCGCGCCTTGGGTTCTAACCTGTTGCAG (site GCCACGCCTCT)” the “recombinant barcode read abundance (log10)” value was 0.0533.
For “GCCGCGCCTTGGGTTCTAACCTGTTGCAG (site GCCCCGCCTCT)”, the “recombinant barcode read abundance (log10)” value was 0.271.
In the case of “GCCGCGCCTTGGGTTCTAACCTGTTGCAG (site GCCGCGCCTCT)”, the “recombinant barcode read abundance (log10)” value is reported as 0.116.
With “GCCGCGCCTTGGGTTCTAACCTGTTGCAG (site GCCTCGCCTCT)” the “recombinant barcode read abundance (log10)” value was 0.13.
With “GCCGCTCCTTGGGTTCTAACCTGTTGCCT (site GCCGCTCCTAG)” the “recombinant barcode read abundance (log10)” value was 0.163.
With “GCCGCTCCTTGGGTTCTAACCTGTTGCCT (site GCGGTTCCTAG)” the “recombinant barcode read abundance (log10)” value was 0.098.
In the case of “GCCTATGCTTGGGTTCTAACCTGTTGCCT (site GACTATGCTAG)”, the “recombinant barcode read abundance (log10)” value is reported as 0.115.
With “GCCTATGCTTGGGTTCTAACCTGTTGCCT (site GCCTATGCTAG)” the “recombinant barcode read abundance (log10)” value was 0.852.
For “GCCTATGCTTGGGTTCTAACCTGTTGCCT (site GGCTATGCTAG)”, the “recombinant barcode read abundance (log10)” value was 0.0448.
In the case of “GCCTATGCTTGGGTTCTAACCTGTTGCCT (site GTCTATGCTAG)”, the “recombinant barcode read abundance (log10)” value is reported as 0.0718.
For “GCCTCTTCTTGGGTTCTAACCTGTTGCCT (site GCCTCTTCTAG)”, the “recombinant barcode read abundance (log10)” value was 0.426.
For “GCCTCTTCTTGGGTTCTAACCTGTTGCCT (site GTCTCTACTAG)”, the “recombinant barcode read abundance (log10)” value was 0.0556.
For “GCCTGGTCTTGGGTTCTAACCTGTTGCCT (site GCCTGGTCTAG)”, the “recombinant barcode read abundance (log10)” value was 1.01.
For “GCCTGGTCTTGGGTTCTAACCTGTTGCCT (site TCCTCGTCTAG)”, the “recombinant barcode read abundance (log10)” value was 0.122.
With “GCGACGCCTTGGGTTCTAACCTGTTGCCT (site ACGAAGCCTAG)” the “recombinant barcode read abundance (log10)” value was 0.0187.
With “GCGACGCCTTGGGTTCTAACCTGTTGCCT (site GCGACGCCTAG)” the “recombinant barcode read abundance (log10)” value was 1.26.
In the case of “GCGACTCCTTGGGTTCTAACCTGTTGCCT (site GCGACTCCTAA)”, the “recombinant barcode read abundance (log10)” value is reported as 0.215.
For “GCGACTCCTTGGGTTCTAACCTGTTGCCT (site GCGACTCCTAG)”, the “recombinant barcode read abundance (log10)” value was 0.699.
For “GCGATCCCTTGGGTTCTAACCTGTTGCTT (site CATGAGACTCC)”, the “recombinant barcode read abundance (log10)” value was 0.0103.
In the case of “GCGATCCCTTGGGTTCTAACCTGTTGCTT (site GCGATCCCTAA)”, the “recombinant barcode read abundance (log10)” value is reported as 0.798.
For “GCGCACCCTTGGGTTCTAACCTGTTGCAG (site CTGCACCCTCT)”, the “recombinant barcode read abundance (log10)” value was 0.0518.
In the case of “GCGCACCCTTGGGTTCTAACCTGTTGCAG (site GCGCACCCTCT)”, the “recombinant barcode read abundance (log10)” value is reported as 1.15.
For “GCGCATGCTTGGGTTCTAACCTGTTGCCT (site GCGCATGCTAG)”, the “recombinant barcode read abundance (log10)” value was 0.788.
For “GCGCATGCTTGGGTTCTAACCTGTTGCCT (site GTGCCTGCTAG)”, the “recombinant barcode read abundance (log10)” value was 0.41.
In the case of “GCGCCCTCTTGGGTTCTAACCTGTTGCCT (site ACGCCCTCTAG)”, the “recombinant barcode read abundance (log10)” value is reported as 0.0862.
With “GCGCCCTCTTGGGTTCTAACCTGTTGCCT (site GCGCCCTCTAG)” the “recombinant barcode read abundance (log10)” value was 0.7.
With “GCGCGAACTTGGGTTCTAACCTGTTGCCT (site GCACGAACTAG)” the “recombinant barcode read abundance (log10)” value was 0.733.
With “GCGCGAACTTGGGTTCTAACCTGTTGCCT (site GCCCGAACTAG)” the “recombinant barcode read abundance (log10)” value was 0.047.
